Reference: ChEMBL document CHEMBL1201862, “PubChem BioAssay data set” (2004)
Active and inactive are the calls of the source.

Columns and labels:
[1] = test system: Vero; assay: host cell cytotoxicity of antiviral hits, dose response, cytotoxicity control for West Nile virus antiviral project, secondary assay (AID 1650); type: functional; conditions: Chlorocebus sabaeus
[2] = inhibitors of intracellular T. cruzi replication, confirmation, NIH3T3 host cells, beta-gal luminescence (AID 2044); type: functional, cell-based;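 further: intracellular parasites grown in NIH/3T3 mouse fibroblasts as host cells; luminescent beta-galactosidase reporter signal from transgenic T. cruzi replicating inside host cells; inhibitors lower the luminescence signal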
[3] = cytotoxicity toward NIH3T3 fibroblasts, dose response, counter-screen, cell-based, ATP luminescence, mouse fibroblasts (AID 2010); type: functional;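 further: cells exposed to compound for about 90 hours before reading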
[4] = cytotoxicity in HEK-293T cells, dose response, cytotoxicity control for TCR NF-kB inhibitor project, luminescence, T-cell screen hits (AID 489026); type: functional, cell-based;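 further: cells exposed to compound about 14 hours before the viability readout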
[5] = test system: Vero; assay: cells; type: functional; conditions: Chlorocebus sabaeus
[6] = cells
[7] = target: T1, Bcl-2-related protein A1 (Mus musculus, UniProt Q07440); assay: Bfl-1 inhibitors blocking BH3 peptide binding, confirmation, biochemical, TR-FRET, mouse Bfl-1 (AID 621);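 further: TR-FRET binding of GST-Bfl-1 to FITC-labelled Bid peptide via terbium antibody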
T1 sequence (Q07440 whole entry): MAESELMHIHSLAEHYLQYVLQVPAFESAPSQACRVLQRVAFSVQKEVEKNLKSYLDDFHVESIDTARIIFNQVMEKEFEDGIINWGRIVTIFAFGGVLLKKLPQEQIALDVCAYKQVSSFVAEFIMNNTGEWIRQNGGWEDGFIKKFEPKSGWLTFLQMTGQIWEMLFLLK

[8] = target: T1, Bcl-2-related protein A1; assay: Bfl-1 binding inhibitors, SAR follow-up, biochemical, fluorescence polarization (AID 1070)
[9] = A549 cell cytotoxicity, dose response, cytotoxicity control, plate reader, cherry-pick, antagonist series (AID 743412); type: functional, cell-based
[10] = HepG2 cell cytotoxicity, dose response, cytotoxicity control, plate reader, cherry-pick, antagonist series (AID 743416); type: functional, cell-based
[11] = LGR2 antagonists, dose response, cell-based, HEK293, CRE-luciferase reporter, cherry pick, set 2 (AID 743343); type: functional;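 further: transfected cells were stimulated with diluted bursicon conditioned medium after compound addition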
[12] = MC4R antagonists, dose response, counter-screen for LGR2 antagonist project, cell-based, plate reader, cherry pick (AID 743444); type: functional;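 further: transfected HEK 293 cells stimulated with alpha-MSH peptide; potency of inhibitors of the alpha-MSH evoked signal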
[13] = target: T2, Tyrosine-protein phosphatase non-receptor type 7 (Homo sapiens, UniProt P35236); assay: inhibitors of human HePTP phosphatase, […], biochemical, absorbance, leukemia target (AID 521); type: functional
T2 sequence (P35236 whole entry): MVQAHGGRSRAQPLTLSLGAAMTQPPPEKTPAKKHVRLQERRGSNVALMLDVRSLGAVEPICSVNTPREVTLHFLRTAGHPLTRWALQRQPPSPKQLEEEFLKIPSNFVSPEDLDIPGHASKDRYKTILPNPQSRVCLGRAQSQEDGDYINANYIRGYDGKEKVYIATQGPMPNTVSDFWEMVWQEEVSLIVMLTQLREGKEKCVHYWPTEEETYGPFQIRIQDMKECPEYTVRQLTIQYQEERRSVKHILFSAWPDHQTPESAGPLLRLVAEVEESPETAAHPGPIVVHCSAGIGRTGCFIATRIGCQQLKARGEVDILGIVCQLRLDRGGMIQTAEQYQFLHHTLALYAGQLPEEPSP

[14] = target: Large T antigen (Simian virus 40, UniProt P03070); type: functional, Betapolyomavirus macacae;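 further: Confirmatory-stage PubChem screen for compounds that inhibit SV40 T antigen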
[15] = target: T3, Mannose-6-phosphate isomerase (Homo sapiens, UniProt P34949); assay: inhibitors of human PMI, primary screen, biochemical, fluorescence intensity, coupled assay (AID 1209)
T3 sequence (P34949 whole entry): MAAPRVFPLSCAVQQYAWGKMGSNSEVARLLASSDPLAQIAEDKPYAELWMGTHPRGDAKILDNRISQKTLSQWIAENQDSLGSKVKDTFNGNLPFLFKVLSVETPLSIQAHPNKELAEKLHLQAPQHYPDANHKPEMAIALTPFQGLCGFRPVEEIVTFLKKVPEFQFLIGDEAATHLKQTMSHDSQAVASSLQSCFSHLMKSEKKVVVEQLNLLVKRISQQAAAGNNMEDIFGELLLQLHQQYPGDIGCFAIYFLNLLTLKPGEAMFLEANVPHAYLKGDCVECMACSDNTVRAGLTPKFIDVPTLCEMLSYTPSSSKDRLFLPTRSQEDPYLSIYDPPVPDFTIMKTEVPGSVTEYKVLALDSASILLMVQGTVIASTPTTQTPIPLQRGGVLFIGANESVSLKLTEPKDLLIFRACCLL

[16] = THP-1 cell cytotoxicity, dose response, cytotoxicity control for Vif-APOBEC3G degradation inhibitor project, THP-1 cells (AID 1117359); type: functional; conditions: Human immunodeficiency virus 1, THP-1
[17] = target: Sphingosine 1-phosphate receptor 2 (Homo sapiens, UniProt O95136); assay: Dose Response Cell-Based Assay for Agonists of the Sphingosine 1-Phosphate Receptor 2 (S1P2): Purchased Analogues. [Related pubchem assays: 1192, 373, 439 ]; type: functional
[18] = target: Sphingosine 1-phosphate receptor 1 (Homo sapiens, UniProt P21453); assay: Dose Response Cell-Based Assay for Agonists of the Sphingosine 1-Phosphate Receptor 1 (S1P1): Purchased Analogues. [Related pubchem assays: 1192, 373, 439 ]; type: functional
[19] = target: Sphingosine 1-phosphate receptor 3 (Homo sapiens, UniProt Q99500); assay: Dose Response Cell-Based Assay for Agonists of the Sphingosine 1-Phosphate Receptor 3 (S1P3): Purchased Analogues. [Related pubchem assays: 373, 439 ]; type: functional
Sphingosine 1-phosphate receptor 3, sequence (Q99500 whole entry): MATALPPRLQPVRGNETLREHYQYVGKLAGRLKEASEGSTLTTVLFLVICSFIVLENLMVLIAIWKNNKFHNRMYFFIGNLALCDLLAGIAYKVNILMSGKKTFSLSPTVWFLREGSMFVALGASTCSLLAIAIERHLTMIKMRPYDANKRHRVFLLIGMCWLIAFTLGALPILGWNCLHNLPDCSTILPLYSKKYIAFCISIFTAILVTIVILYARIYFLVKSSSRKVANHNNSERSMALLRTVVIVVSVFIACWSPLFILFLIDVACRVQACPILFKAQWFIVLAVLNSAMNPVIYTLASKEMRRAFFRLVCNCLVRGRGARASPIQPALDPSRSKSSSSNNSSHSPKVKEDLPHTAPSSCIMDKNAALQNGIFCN

Sphingosine 1-phosphate receptor 1, sequence (P21453 whole entry): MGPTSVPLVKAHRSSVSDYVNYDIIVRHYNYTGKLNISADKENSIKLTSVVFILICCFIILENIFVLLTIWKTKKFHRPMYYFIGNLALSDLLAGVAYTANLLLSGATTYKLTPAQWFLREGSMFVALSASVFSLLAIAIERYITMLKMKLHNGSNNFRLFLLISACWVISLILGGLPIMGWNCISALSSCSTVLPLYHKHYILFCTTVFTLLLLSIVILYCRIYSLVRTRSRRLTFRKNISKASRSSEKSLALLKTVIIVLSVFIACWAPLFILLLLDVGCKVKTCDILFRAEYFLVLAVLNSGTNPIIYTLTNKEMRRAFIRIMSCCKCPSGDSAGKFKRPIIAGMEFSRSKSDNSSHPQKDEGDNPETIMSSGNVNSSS
Large T antigen, sequence (P03070 whole entry): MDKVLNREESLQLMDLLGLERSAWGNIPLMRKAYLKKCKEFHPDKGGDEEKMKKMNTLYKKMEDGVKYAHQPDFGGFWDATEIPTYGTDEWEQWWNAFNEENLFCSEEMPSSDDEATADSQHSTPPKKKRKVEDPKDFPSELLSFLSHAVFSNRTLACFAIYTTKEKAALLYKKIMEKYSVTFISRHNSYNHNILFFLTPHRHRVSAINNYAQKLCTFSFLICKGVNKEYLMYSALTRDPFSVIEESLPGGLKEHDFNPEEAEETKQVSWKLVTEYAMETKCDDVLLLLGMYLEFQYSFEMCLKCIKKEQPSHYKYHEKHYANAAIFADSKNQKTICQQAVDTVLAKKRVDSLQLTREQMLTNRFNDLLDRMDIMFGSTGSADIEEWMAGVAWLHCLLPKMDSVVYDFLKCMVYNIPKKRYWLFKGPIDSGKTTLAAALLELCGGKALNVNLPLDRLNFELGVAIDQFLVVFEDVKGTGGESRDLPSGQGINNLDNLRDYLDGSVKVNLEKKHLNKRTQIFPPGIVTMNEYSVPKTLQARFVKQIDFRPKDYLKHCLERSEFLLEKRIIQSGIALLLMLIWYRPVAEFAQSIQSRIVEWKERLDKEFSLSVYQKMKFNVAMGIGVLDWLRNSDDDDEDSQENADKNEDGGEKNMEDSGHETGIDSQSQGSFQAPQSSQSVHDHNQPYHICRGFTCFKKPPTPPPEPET
Sphingosine 1-phosphate receptor 2, sequence (O95136 whole entry): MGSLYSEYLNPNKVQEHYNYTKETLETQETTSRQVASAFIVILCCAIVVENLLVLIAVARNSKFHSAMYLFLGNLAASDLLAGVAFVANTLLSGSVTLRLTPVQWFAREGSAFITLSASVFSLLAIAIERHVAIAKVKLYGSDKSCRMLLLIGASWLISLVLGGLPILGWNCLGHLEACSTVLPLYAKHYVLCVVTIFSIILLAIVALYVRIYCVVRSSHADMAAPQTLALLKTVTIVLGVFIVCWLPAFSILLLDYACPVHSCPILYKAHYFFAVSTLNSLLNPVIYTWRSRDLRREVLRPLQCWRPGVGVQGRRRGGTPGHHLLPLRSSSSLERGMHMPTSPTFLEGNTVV

SMILES: C=C(C)[C@@]12OC3(c4ccccc4)O[C@@H]1C1[C@@H]4O[C@]4(CO)[C@@H](O)[C@]4(O)C(=O)C(C)=C[C@H]4[C@@]1(O3)[C@H](C)[C@H]2OC(=O)/C=C/C=C/c1ccccc1 (some centres undefined)
- CC50 [1]: > 100 µM (active)
- EC50 [2]: < 0.1 µM (active)
- EC50 [3]: > 60 µM (not active)
- IC50 [4]: > 80 µM (inactive)
- CC50 [5]: > 25 µM (active)
- EC50 [6]: < 0.004 µM (active)

SMILES: Fc1ccc(-n2nnc(-c3cnc4ccccc4c3)n2)cc1
- IC50 [7]: > 100 µM (not active)
- IC50 [8]: > 100 µM (not active)
- AC50 [9]: 39.5 µM (active)
- AC50 [10]: > 52 µM (inactive)
- AC50 [11]: 1.23 µM (active)
- AC50 [12]: 2.15 µM (active)

SMILES: O=C(CCCn1c(=O)[nH]c2cc(Cl)ccc2c1=O)NCCN1CCN(c2ccccc2)CC1
- IC50 [13]: > 100 µM (not active)

SMILES: COc1cccc(-n2c(/C=C/c3ccc(O)c(O)c3)nc3ccccc3c2=O)c1
- IC50 [14]: > 100 µM (active)
- IC50 [15]: > 50 µM (not active)
- CC50 [16]: 23.1 µM (active)

SMILES: COc1ccc(-c2n[nH]c(SCC(=O)N(C3CCCCC3)C3CCCCC3)n2)cc1
- EC50 [17]: > 10 µM (not active)
- EC50 [18]: > 50 µM (not active)
- EC50 [19]: > 50 µM (not active)
